Measured values reported in patent US9056110B2, “Substituted pyrimidinone-phenyl-pyrimidinyl compounds” (Confluence Life Sciences, Inc., priority 2011, dated 2015).

Tests used:
[1] = tested on: TNFα; assay: LPS stimulated TNFα production in human PBMCs (ELISA); format: cell-based; settings: PBMC, LPS 0.1 μg/ml, 18-24 hours, read-out: PBMC Cell, TNFα IC50
Method: Evaluation of the potency and efficacy of p38 inhibitors to block cytokine production is carried out using the human U937 cell line and purified human PBMCs (peripheral blood mononuclear cells). The U937 human pre-monocytic cell line is obtained from the American Type Culture Collection (Rockville, Md.). These cells are differentiated to a monocytic/macrophage phenotype as described by Burnette (Burnette et al., (2009). SD0006: a potent, selective and orally available inhibitor of p38 kinase, Pharmacology 84(1):42-60). Differentiated U937 cells are seeded into 96-well tissue culture plates (200,000 cells/well) in complete media. After 24 hours, the cells are pretreated for 60 minutes in the presence or absence of compound and then stimulated with LPS (lipopolysaccharide) (0.1 μg/mL) for 4 hours. Culture media are then collected for determination of TNFα or IL-6 levels by ELISA. Human PBMCs are isolated from leukopacks as described by Burnette (Burnette et al., (2009), op. cit.). The cells are seeded into 96-well tissue culture plates (200,000 cells/well) in complete media. After a one hour recovery period at 37° C., 5% CO2, the cells are pretreated for 60 minutes in the presence or absence of compound and then stimulated with LPS (0.1 μg/ml) for 18-24 hours. Culture media are then collected for determination of TNFα and IL1β by ELISA. Cytokine concentrations are extrapolated from recombinant protein standard curves using a four-parameter logistic model and solving for IC50 after iterating to the best least-squares fit. p38 inhibitors will show a dose dependent inhibition of LPS stimulated TNFα, and IL6 in differentiated U937 cells and a dose dependent inhibition of LPS stimulated TNFα, IL6 and IL1b in human PBMCs. As drugs that down-regulate TNFα, IL6 and IL1b are efficacious in a number of autoimmune, autoinflammatory inflammatory, cardiovascular and oncological diseases, it would be expected that p38 drugs that inhibit these cytokines and other enzymes and mediators of disease will be effective drugs. Species compounds of Formula (I), described hereinabove, evaluated in this assay, are expected to provide a therapeutic benefit in the treatment of p38 kinase mediated diseases, including lymphoma and inflammation.

[2] = molecular target: p38α/MK2 (Homo sapiens, UniProt Q16539); assay: p38α/MK2 cascade assay (IMAP, Hsp27 peptide phosphorylation); format: biochemical; settings: for IC50: p38α/MK2 cascade, Hsp27 peptide 1 μM, MgATP 10 μM, 120 minutes, read-out: p38/MK2 IC50; for Selectivity Ratio: ratio of p38α/PRAK:p38α/MK2 IC50 values
Method: (§1) P38 inhibitory potency and P38/MK2 substrate selectivity: The novel, MK2 substrate-selective inhibitory mechanism of compounds is evaluated in enzyme assays that compare inhibitor potency in blocking p38/MK2 versus p38/PRAK induced phosphorylation of an HSP-27 derived peptide substrate. The ability of compounds to inhibit activated phospho-p38α is evaluated using a p38α/MK2 and a p38α/PRAK cascade assay format. The kinase activity of p38α is determined by its ability to phosphorylate and activate GST-MK2 or GST-PRAK. The kinase activity of activated MK2 and PRAK is followed by measuring the phosphorylation of a fluorescently-labeled, peptide substrate based on the sequence of Hsp27 (FITC-KKKALSRQLSVAA). The phosphorylation of the Hsp27 peptide is quantified using IMAP assay technology (Molecular Devices) and the Analyst HT plate reader (LJL Biosystems). Kinase reactions are carried out in a 384-well plate (Corning 3575) in 20 mM HEPES pH 7.5, 10 mM MgCl2, 0.0005% Tween-20, 0.01% BSA, 1 mM DTT, and 2% DMSO. The inhibitor concentration varies between 0.5-30,000 nM, while the Hsp27 peptide substrate and MgATP are held constant at 1 μM and 10 μM, respectively. Activated p38α is added to a final concentration of 20 pM for reactions with 1 nM nonphosphorylated 1 nM GST-MK2. For the p38α/PRAK cascade, unactivated GST-PRAK is held constant at 10 nM while p38α is added to a final concentration of […]. Kinase reactions are incubated at room temperature and quenched after 120 minutes by the addition of 1× Progressive Binding Buffer A containing 1×IMAP beads (IMAP FP Progressive Screening Express Kit, Molecular Devices Catalog Number R8127). Inhibitor potency is calculated by fitting dose-response data to the 4-parameter logistical IC50 equation. The substrate selectivity is calculated as a ratio of p38α/PRAK:p38α/MK2 IC50 values. A substrate selective inhibitor will have a p38α/PRAK:p38α/MK2 IC50 ratio of >2 while a classical p38 inhibitor will have a ratio of between 0.5-2. […] By way of example, the enhanced therapeutic benefit could be associated with a reduction in inhibition of p38 mediated anti-inflammatory functions, such as IL-10 production and TAB1 phosphorylation. An increased safety profile is expected based, for example, on a reduced inhibition of p38 substrates, such as PPARg and CDC25 phosphatase and PLA2 involved in gluconeogenesis and cell cycle regulation, respectively.

[3] = molecular target: p38α/PRAK (Homo sapiens, UniProt Q16539); assay: p38α/PRAK cascade assay (IMAP, Hsp27 peptide phosphorylation); format: biochemical; settings: Hsp27 peptide 1 μM, MgATP 10 μM, 120 minutes, read-out: p38/PRAK IC50
Method: as §1

Chain of p38α/MK2 (Q16539 whole entry): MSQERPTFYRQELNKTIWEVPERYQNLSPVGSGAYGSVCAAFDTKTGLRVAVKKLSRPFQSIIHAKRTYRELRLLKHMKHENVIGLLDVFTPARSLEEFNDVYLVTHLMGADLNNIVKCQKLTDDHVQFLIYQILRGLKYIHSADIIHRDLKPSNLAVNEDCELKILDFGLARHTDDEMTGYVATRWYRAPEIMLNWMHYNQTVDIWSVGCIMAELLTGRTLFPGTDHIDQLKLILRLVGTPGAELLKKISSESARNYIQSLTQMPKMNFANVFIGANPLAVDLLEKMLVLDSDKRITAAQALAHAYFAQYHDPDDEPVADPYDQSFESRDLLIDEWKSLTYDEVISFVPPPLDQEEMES
Chain of p38α/MK2 (P49137 whole entry partner): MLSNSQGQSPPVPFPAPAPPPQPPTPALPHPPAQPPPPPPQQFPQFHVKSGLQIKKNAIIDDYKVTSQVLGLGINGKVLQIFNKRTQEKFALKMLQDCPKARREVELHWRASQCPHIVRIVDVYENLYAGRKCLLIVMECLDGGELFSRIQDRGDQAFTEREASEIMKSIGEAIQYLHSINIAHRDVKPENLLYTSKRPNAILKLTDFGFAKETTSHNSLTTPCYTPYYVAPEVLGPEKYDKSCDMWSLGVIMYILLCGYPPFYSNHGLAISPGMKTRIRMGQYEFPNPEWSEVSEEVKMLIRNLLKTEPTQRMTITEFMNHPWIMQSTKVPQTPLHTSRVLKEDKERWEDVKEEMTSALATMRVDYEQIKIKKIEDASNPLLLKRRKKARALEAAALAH
Chain of p38α/PRAK (Q16539 whole entry): as the sequence (Q16539 whole entry) above

Compound	IC50 [1] [nM]	IC50 [2] [nM]	Selectivity Ratio [2]	IC50 [3] [nM]
Cc1ccc(-c2ccnc(C(C)(C)O)n2)cc1-n1c(C)nc(OCc2ccc(F)c(C)c2F)c(Cl)c1=O [Example 22, 5-chloro-6-(2,4-difluoro-3-methyl-benzyloxy)-3-{5-[2-(1-hydroxy-1-methyl-ethyl)-pyrimidin-4-yl]-2-methyl-phenyl}-2-methyl-3H-pyrimidin-4-one]	215	386	15.1	5820
Cc1ccc(-c2ccnc(C(C)(C)O)n2)cc1-n1c(C)nc(OCc2cccc(C(F)(F)F)n2)c(Cl)c1=O [Example 17, 5-chloro-3-(5-(2-(2-hydroxypropan-2-yl)pyrimidin-4-yl)-2-methylphenyl)-2-methyl-6-((6-(trifluoromethyl)pyridin-2-yl)methoxy)pyrimidin-4(3H)-one]	3750	1700	>17.6	> 30000
Cc1nc(COc2nc(C)n(-c3cc(-c4ccnc(C(C)(C)O)n4)ccc3C)c(=O)c2Cl)co1 (racemic) [Example 8, 5-chloro-3-(5-(2-(2-hydroxypropan-2-yl)pyrimidin-4-yl)-2-methylphenyl)-2-methyl-6-((2-methyloxazol-4-yl)methoxy)pyrimidin-4(3H)-one]	158	121	18.1	2190
COc1cccc(COc2nc(C)n(-c3cc(-c4ccnc(C(C)(C)C)n4)ccc3C)c(=O)c2Cl)c1 [Example 6, 3-[5-(2-tert-butyl-pyrimidin-4-yl)-2-methyl-phenyl]-5-chloro-6-(3-methoxy-benzyloxy) -2-methyl-3H-pyrimidin-4-one]	270	1900	6.1	11600
Cc1ccc(-c2ccnc(C(C)(C)O)n2)cc1-n1c(C)nc(OCc2cccc(F)n2)c(Cl)c1=O [Example 18, 5-chloro-6-((6-fluoropyridin-2-yl)methoxy)-3-(5-(2-(2-hydroxypropan-2-yl)pyrimidin-4-yl)-2-methylphenyl)-2-methylpyrimidin-4(3H)-one]	624	579	13.3	7690

The remaining lines, values ahead:

IC50 [1] [nM]	IC50 [2] [nM]	Selectivity Ratio [2]	IC50 [3] [nM]	Compound
54	51	10.1	514	Cc1ccc(-c2ccnc(C(C)(C)O)n2)cc1-n1c(C)nc(OCc2ccc(F)cc2)c(Cl)c1=O [Example 3, 5-chloro-6-((4-fluorobenzyl)oxy)-3-(5-(2-(2-hydroxypropan-2-yl)pyrimidin-4-yl)-2-methylphenyl)-2-methylpyrimidin-4(3H)-one]
96	33	7.63	252	Cc1ccc(-c2ccnc(C(C)(C)O)n2)cc1-n1c(C)nc(OCc2ncc(F)cc2F)c(Cl)c1=O [Example 21, (−)-5-chloro-6-((3,5-difluoropyridin-2-yl)methoxy)-3-(5-(2-(2-hydroxypropan-2-yl)pyrimidin-4-yl)-2-methylphenyl)-2-methylpyrimidin-4(3H)-one]
101	1020	12.6	12900	Cc1cccc(COc2nc(C)n(-c3cc(-c4ccnc(C(C)(C)C)n4)ccc3C)c(=O)c2Cl)c1 [Example 4, 3-(5-(2-(tert-butyl)pyrimidin-4-yl)-2-methylphenyl)-5-chloro-2-methyl-6-((3-methylbenzyl)oxy)pyrimidin-4(3H)-one]
